Measurements published in patent US20230061608A1, “SUBSTITUTED QUINOLINONYL PIPERAZINE COMPOUNDS USEFUL AS T CELL ACTIVATORS” (BRISTOL-MYERS SQUIBB COMPANY, priority 2019, published 2023).

Experiments:
DGKζ = biological target: T1, DGKζ (Homo sapiens, UniProt Q13574); assay: In vitro DGK inhibition assay, DGKζ LIPGLO (extruded liposomes); assay type: biochemical; conditions: liposome (LIPGLO) assay, 150 μM ATP, 5 nM enzyme
T1 construct: Full length human DGKα and DGKζ, each expressed containing a TVMV-cleavable C-terminal Hexa-His tag; made in house; host or cells: Sf9 insect cells, baculovirus (Bac-to-Bac)
T1 sequence (Q13574 1-929 isoform Q13574-4): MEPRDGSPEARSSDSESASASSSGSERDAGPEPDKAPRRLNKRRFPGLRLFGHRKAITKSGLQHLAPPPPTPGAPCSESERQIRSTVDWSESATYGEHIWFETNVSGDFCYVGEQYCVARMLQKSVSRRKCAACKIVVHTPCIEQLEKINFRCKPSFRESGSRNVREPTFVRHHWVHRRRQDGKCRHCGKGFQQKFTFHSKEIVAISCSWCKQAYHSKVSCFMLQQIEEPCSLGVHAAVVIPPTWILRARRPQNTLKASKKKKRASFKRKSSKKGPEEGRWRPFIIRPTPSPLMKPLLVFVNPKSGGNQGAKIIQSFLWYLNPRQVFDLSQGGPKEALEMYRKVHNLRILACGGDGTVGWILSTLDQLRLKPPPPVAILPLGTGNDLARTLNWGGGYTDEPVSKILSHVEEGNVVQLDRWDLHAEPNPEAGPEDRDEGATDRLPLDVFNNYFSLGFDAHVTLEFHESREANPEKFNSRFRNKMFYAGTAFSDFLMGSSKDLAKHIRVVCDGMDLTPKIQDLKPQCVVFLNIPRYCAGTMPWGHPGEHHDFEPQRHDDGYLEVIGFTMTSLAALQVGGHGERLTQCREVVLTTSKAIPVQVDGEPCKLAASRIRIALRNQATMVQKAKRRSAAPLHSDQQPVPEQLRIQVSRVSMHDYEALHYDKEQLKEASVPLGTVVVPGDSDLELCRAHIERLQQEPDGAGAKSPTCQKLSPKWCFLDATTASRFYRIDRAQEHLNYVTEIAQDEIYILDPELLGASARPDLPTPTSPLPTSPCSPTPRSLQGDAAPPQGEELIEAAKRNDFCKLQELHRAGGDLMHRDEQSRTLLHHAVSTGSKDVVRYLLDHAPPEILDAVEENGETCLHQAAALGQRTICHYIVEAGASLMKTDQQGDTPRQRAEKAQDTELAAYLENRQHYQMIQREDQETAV
Experimental: (§1) Assay 1: In vitro DGK Inhibition Assays—Method A
(§2) The DGKα and DGKζ reactions were performed using extruded liposomes (DGKα and DGKζ LIPGLO assays). The reactions were carried out in 50 mM MOPS pH 7.5, 100 mM NaCl, 10 mM MgCl2, 1 μM CaCl2), and 1 mM DTT (assay buffer). The lipid substrate concentrations were 2 mM PS, 0.25 mM DAG, and 2.75 mM PC for the extruded liposome reactions. The reactions were carried out in 150 μM ATP. The enzyme concentrations for the DGKα and DGKζ were 5 nM.
(§3) The compound inhibition studies were carried out as follows: 50 nL droplets of each test compound (top concentration 10 mM with 11 point, 3-fold dilution series for each compound) solubilized in DMSO were transferred to wells of a white 1536 well plate (Corning 3725). A 5 mL enzyme/substrate solution at 2× final reaction concentration was prepared by combining 2.5 mL 4× enzyme solution (20 nM DGKα or DGKζ (prepared as described below) in assay buffer) and 2.5 mL of 4× liposome solution (compositions described below) and incubated at room temperature for 10 minutes. Next, 1 μL 2× enzyme/substrate solution was added to wells containing the test compound and reactions were initiated with the addition of 1 μL 300 uM ATP. The reactions were allowed to proceed for 1 hr, after which 2 μL Glo Reagent (Promega V9101) was added and incubated for 40 minutes. Next, 4 μL Kinase Detection Reagent was added and incubated for 30 minutes. Luminescence was recorded using an EnVision microplate reader. The percent inhibition was calculated from the ATP conversion generated by no enzyme control reactions for 100% inhibition and vehicle-only reactions for 0% inhibition. The compounds were evaluated at 11 concentrations to determine IC50.
(§4) The lipid composition was 5 mol % DAG (Avanti 8008110), 40 mol % PS (Avanti 840035P), and 55 mol % PC (Avanti 850457) at a total lipid concentration of 15.2 mg/mL for the 4× liposome solution. The PC, DAG, and PS were dissolved in chloroform, combined, and dried in vacuo to a thin film. The lipids were hydrated to 20 mM in 50 mM MOPS pH 7.5, 100 mM NaCl, 5 mM MgCl2, and were freeze-thawed five times. The lipid suspension was extruded through a 100 nm polycarbonate filter eleven times. Dynamic light scattering was carried out to confirm liposome size (50-60 nm radius). The liposome preparation was stored at 4° C. for as long as four weeks.
(§5) Human DGK-alpha-TVMV-His-pFBgate and human DGK-zeta-transcript variant-2-TVMV-His-pFBgate baculovirus samples were generated using the Bac-to-Bac baculovirus expression system (Invitrogen) according to the manufacturer's protocol. The DNA used for expression of DGK-alpha and DGK-zeta have SEQ ID NOs: 1 and 3, respectively. Baculovirus amplification was achieved using infected Sf9 cells at 1:1500 virus/cell ratios, and grown for 65 hours at 27° C. post-transfection.
(§6) Full length human DGKα and DGKζ, each expressed containing a TVMV-cleavable C-terminal Hexa-His tag sequence (SEQ ID NOs: 2 and 4, respectively) and produced as described above, were purified from Sf9 baculovirus-infected insect cell paste. The cells were lysed using nitrogen cavitation method with a nitrogen bomb (Parr Instruments), and the lysates were clarified by centrifugation. The clarified lysates were purified to ˜90% homogeneity, using three successive column chromatography steps on an ÄKTA Purifier Plus system. The three steps column chromatography included nickel affinity resin capture (i.e. HisTrap FF crude, GE Healthcare), followed by size exclusion chromatography (i.e. HiLoad 26/600 Superdex 200 prep grade, GE Healthcare for DGK-alpha, and HiPrep 26/600 Sephacryl S 300_HR, GE Healthcare for DGK-zeta). The third step was ion exchange chromatography, and differed for the two isoforms. DGKα was polished using Q-Sepharose anion exchange chromatography (GE Healthcare). DGKζ was polished using SP Sepharose cation exchange chromatography (GE Healthcare). The proteins were delivered at concentrations of ≥2 mg/mL. […]

DGKα = biological target: T2, DGKα (Homo sapiens, UniProt P23743); assay: In vitro DGK inhibition assay, DGKα LIPGLO (extruded liposomes); assay type: biochemical; conditions: liposome (LIPGLO) assay, 150 μM ATP, 5 nM enzyme
T2 construct: made in house; host or cells: Sf9 insect cells, baculovirus (Bac-to-Bac)
T2 sequence (P23743 whole entry): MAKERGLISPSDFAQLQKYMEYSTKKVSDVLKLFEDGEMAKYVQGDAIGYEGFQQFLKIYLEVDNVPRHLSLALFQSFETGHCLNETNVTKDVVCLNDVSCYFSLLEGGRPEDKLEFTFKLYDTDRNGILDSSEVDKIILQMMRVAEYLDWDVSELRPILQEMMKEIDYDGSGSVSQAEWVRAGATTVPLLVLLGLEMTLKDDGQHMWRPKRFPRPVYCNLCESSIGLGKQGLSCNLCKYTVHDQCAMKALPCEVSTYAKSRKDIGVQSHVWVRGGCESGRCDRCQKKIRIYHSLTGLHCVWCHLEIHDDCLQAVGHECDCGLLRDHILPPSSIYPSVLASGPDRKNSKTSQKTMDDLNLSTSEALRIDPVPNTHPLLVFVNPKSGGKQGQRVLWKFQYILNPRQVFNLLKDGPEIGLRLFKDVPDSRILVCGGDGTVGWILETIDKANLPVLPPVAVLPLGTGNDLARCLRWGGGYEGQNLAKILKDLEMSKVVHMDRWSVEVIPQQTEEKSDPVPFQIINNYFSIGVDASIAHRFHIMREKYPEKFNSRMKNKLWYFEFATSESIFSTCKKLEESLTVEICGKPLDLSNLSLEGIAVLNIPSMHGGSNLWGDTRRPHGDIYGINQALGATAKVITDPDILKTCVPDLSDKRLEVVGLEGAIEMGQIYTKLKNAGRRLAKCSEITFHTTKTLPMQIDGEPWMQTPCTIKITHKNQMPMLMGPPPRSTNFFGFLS
Experimental: as §1, §2, §3, §4, §5, §6

IC50 (DGKζ) | IC50 (DGKα) | Structure (SMILES)
> 27 µM | 0.7 µM | C[C@@H]1CN(c2c(C#N)c(=O)n(C)c3ccccc23)[C@@H](C)CN1C(c1ccc(F)cc1)c1ccc(F)cc1 (stereo in doubt) [Example 6, 4-[(2S,5R)-4-[bis(4-fluorophenyl)methyl]-2,5-dimethylpiperazin-1-yl]-1-methyl-2-oxo-1,2-dihydroquinoline-3-carbonitrile]
> 250 µM | 1.3 µM | C[C@@H]1CN(c2cc(=O)n(C)c3ccc(C#N)cc23)[C@@H](C)CN1C(c1ccc(F)cc1)c1ccc(F)cc1 (stereo in doubt) [Example 7, 4-[(2S,5R)-4-[bis(4-fluorophenyl)methyl]-2,5-dimethylpiperazin-1-yl]-1-methyl-2-oxo-1,2-dihydroquinoline-6-carbonitrile]
35 µM | 0.051 µM | Cc1cc(F)cc(CN2CCN(c3c(-c4ccncc4)c(=O)n(C)c4ccc(F)cc34)CC2)c1 [Example 2, 6-fluoro-4-{4-[(3-fluoro-5-methylphenyl)methyl]piperazin-1-yl}-1-methyl-3-(pyridin-4-yl)-1,2-dihydroquinolin-2-one]

The remaining lines, values behind:

Structure (SMILES) | IC50 (DGKζ) | IC50 (DGKα)
Cn1c(=O)c([N+](=O)[O-])c(N2CCN(Cc3cccc(F)c3)CC2)c2cc(F)ccc21 [Example 1, 6-fluoro-4-{4-[(3-fluorophenyl)methyl]piperazin-1-yl}-1-methyl-3-nitro-1,2-dihydroquinolin-2-one] | 41 µM | 0.0073 µM
CCn1ccc2c(CN3CCN(c4c([N+](=O)[O-])c(=O)n(C)c5ccc(F)cc45)CC3)cccc21 [Example 4, 4-{4-[(1-ethyl-1H-indol-4-yl)methyl]piperazin-1-yl}-6-fluoro-1-methyl-3-nitro-1,2-dihydroquinolin-2-one] | 7.9 µM | 0.15 µM
Cn1c(=O)c([N+](=O)[O-])c(N2CCN(Cc3ccccc3)C(=O)C2)c2cc(F)ccc21 [Example 5, 4-(4-benzyl-3-oxopiperazin-1-yl)-6-fluoro-1-methyl-3-nitro-1,2-dihydroquinolin-2-one] | > 240 µM | 0.5 µM
COc1ccc2c(c1)c(N1CCN(Cc3cccc4ccccc34)CC1)c([N+](=O)[O-])c(=O)n2C [Example 8, 6-methoxy-1-methyl-4-{4-[(naphthalen-1-yl)methyl]piperazin-1-yl}-3-nitro-1,2-dihydroquinolin-2-one] | 82 µM | 39 µM
Cn1c(=O)c(CO)c(N2CCN(C(c3ccccc3)c3ccccc3)CC2)c2ccccc21 [Example 11, 4-[4-(diphenylmethyl)piperazin-1-yl]-3-(hydroxymethyl)-1-methyl-1,2-dihydroquinolin-2-one] | > 240 µM | 90 µM
